Source: PubChem BioAssay AID330 (DTP/NCI, 2004)
Values joined by “and” are separate entries in the source; they are usually repeats but may differ in a detail not shown here. Identical values can stand only once. Toxic doses and inconclusive results are not listed.

Tested on: P388 leukemia ip, CD2F1 mice, survival T/C
Experiment: NCI In Vivo Anticancer Drug Screen. Data for tumor model P388 Leukemia (intraperitoneal) in CD2F1 (CDF1) mice
Details: endpoint: median survival time, higher = longer survival
Method in brief: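 Mice carrying the transplanted tumor received test compound or vehicle. Survival was recorded in each group, and the value is the treated-group measurement divided by that of the vehicle-treated control group.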

[1] = dose: 3.13 mg/kg/injection, schedule: Q01DX009 (ip), vehicle: Klucel (hydroxypropylcellulose) (HPC)
[2] = dose: 6.25 mg/kg/injection, schedule: Q01DX009 (ip), vehicle: Klucel (hydroxypropylcellulose) (HPC)
[3] = dose: 12.5 mg/kg/injection, schedule: Q01DX009 (ip), vehicle: Klucel (hydroxypropylcellulose) (HPC)
[4] = dose: 25.0 mg/kg/injection, schedule: Q01DX009 (ip), vehicle: Klucel (hydroxypropylcellulose) (HPC)
[5] = dose: 50.0 mg/kg/injection, schedule: Q01DX009 (ip), vehicle: Klucel (hydroxypropylcellulose) (HPC)
[6] = dose: 100.0 mg/kg/injection, schedule: Q01DX009 (ip), vehicle: Klucel (hydroxypropylcellulose) (HPC)
[7] = dose: 25.0 mg/kg/injection, schedule: Q01DX009 (ip), vehicle: saline with Tween-80
[8] = dose: 50.0 mg/kg/injection, schedule: Q01DX009 (ip), vehicle: saline with Tween-80
[9] = dose: 100.0 mg/kg/injection, schedule: Q01DX009 (ip), vehicle: saline with Tween-80
[10] = dose: 200.0 mg/kg/injection, schedule: Q01DX009 (ip), vehicle: saline with Tween-80
[11] = dose: 400.0 mg/kg/injection, schedule: Q01DX009 (ip), vehicle: saline with Tween-80
[12] = dose: 50.0 mg/kg/injection, schedule: Q01DX005 (ip), vehicle: saline with Tween-80
[13] = dose: 100.0 mg/kg/injection, schedule: Q01DX005 (ip), vehicle: saline with Tween-80
[14] = dose: 50.0 mg/kg/injection, schedule: Q01DX009 (ip), vehicle: saline
[15] = dose: 100.0 mg/kg/injection, schedule: Q01DX009 (ip), vehicle: saline
[16] = dose: 200.0 mg/kg/injection, schedule: Q01DX009 (ip), vehicle: saline

CN(C)c1ccc(N=C2C=CC(=[N+](C)C)C=C2)cc1
T/C [1]: 90 % of control
T/C [2]: 93 % of control
T/C [3]: 101 % of control
T/C [4]: 114 % of control

COc1ccc(/C=C/CC2Cc3cc4c(cc3OC2c2ccc(OC)cc2)OCO4)cc1 (centres undefined)
T/C (dose: 3.75 mg/kg/injection, schedule: Q01DX005 (ip), vehicle: saline with Tween-80): 93 % of control
T/C (dose: 7.5 mg/kg/injection, schedule: Q01DX005 (ip), vehicle: saline with Tween-80): 90 % of control

CC(C)(C)n1nc(C2CC2)c(Br)c1NC(=O)c1ccccc1
T/C (dose: 30.0 mg/kg/injection, schedule: Q01DX005 (ip), vehicle: Klucel (hydroxypropylcellulose) (HPC)): 107 % of control
T/C (dose: 60.0 mg/kg/injection, schedule: Q01DX005 (ip), vehicle: Klucel (hydroxypropylcellulose) (HPC)): 109 % of control
T/C (dose: 120.0 mg/kg/injection, schedule: Q01DX005 (ip), vehicle: Klucel (hydroxypropylcellulose) (HPC)): 107 % of control
T/C (dose: 240.0 mg/kg/injection, schedule: Q01DX005 (ip), vehicle: Klucel (hydroxypropylcellulose) (HPC)): 98 % of control

CCOC(=O)c1c(-c2ccc3c(c2)OCO3)[nH][nH]c1=O
T/C (dose: 100.0 mg/kg/injection, schedule: Q04DX002 (ip), vehicle: saline): 101 % of control
T/C (dose: 200.0 mg/kg/injection, schedule: Q04DX002 (ip), vehicle: saline): 99 % of control

Cn1ccc2c1CC(=O)NC2=O
T/C (dose: 3.12 mg/kg/injection, schedule: Q04DX003 (ip), vehicle: Klucel (hydroxypropylcellulose) (HPC)): 100 % of control
T/C (dose: 6.25 mg/kg/injection, schedule: Q04DX003 (ip), vehicle: Klucel (hydroxypropylcellulose) (HPC)): 108 % of control
T/C (dose: 12.5 mg/kg/injection, schedule: Q04DX003 (ip), vehicle: Klucel (hydroxypropylcellulose) (HPC)): 114 % of control
T/C (dose: 100.0 mg/kg/injection, schedule: Q04DX003 (ip), vehicle: Klucel (hydroxypropylcellulose) (HPC)): 106 % of control

O=C(NC(=S)c1ccc(Br)cc1)NS(=O)(=O)c1ccc(Cl)cc1
T/C (dose: 100.0 mg/kg/injection, schedule: Q01DX001 (ip), vehicle: saline with Tween-80): 96 % of control
T/C (dose: 200.0 mg/kg/injection, schedule: Q01DX001 (ip), vehicle: saline with Tween-80): 92 % of control
T/C (dose: 400.0 mg/kg/injection, schedule: Q01DX001 (ip), vehicle: saline with Tween-80): 102 % of control

N#CNc1nc2ccccc2[nH]1
T/C [2]: 100 % of control
T/C [3]: 103 % of control
T/C [4]: 108 % of control
T/C [5]: 101 % of control
T/C [6]: 100 % of control

Cc1ccc(S(=O)(=O)Cc2ccccc2)cc1
T/C (dose: 50.0 mg/kg/injection, schedule: Q04DX003 (ip), vehicle: other): 90 % of control
T/C (dose: 100.0 mg/kg/injection, schedule: Q04DX003 (ip), vehicle: other): 95 % of control
T/C (dose: 200.0 mg/kg/injection, schedule: Q04DX003 (ip), vehicle: other): 90 % of control

Cc1cnc(=O)[nH]c1NO
T/C (dose: 100.0 mg/kg/injection, schedule: Q04DX002 (ip), vehicle: Klucel (hydroxypropylcellulose) (HPC)): 102 % of control
T/C (dose: 200.0 mg/kg/injection, schedule: Q04DX002 (ip), vehicle: Klucel (hydroxypropylcellulose) (HPC)): 100 % of control
T/C (dose: 400.0 mg/kg/injection, schedule: Q04DX002 (ip), vehicle: Klucel (hydroxypropylcellulose) (HPC)): 98 % of control

CCOC(=O)/C=C/C(F)(F)C(F)(F)C(F)(F)C(F)(F)C(F)(F)C(F)(F)C(F)(F)F
T/C (dose: 100.0 mg/kg/injection, schedule: Q04DX003 (ip), vehicle: saline): 100 % of control
T/C (dose: 200.0 mg/kg/injection, schedule: Q04DX003 (ip), vehicle: saline): 100 % of control
T/C (dose: 400.0 mg/kg/injection, schedule: Q04DX003 (ip), vehicle: saline): 100 % of control

COc1cccc2c(Nc3ccc4c(c3)OCO4)c(C(=O)O)cnc12
T/C (dose: 60.0 mg/kg/injection, schedule: Q01DX005 (ip), vehicle: Klucel + Tween-80): 94 % of control
T/C (dose: 120.0 mg/kg/injection, schedule: Q01DX005 (ip), vehicle: Klucel + Tween-80): 103 % of control

Cc1ccc(NS(=O)(=O)c2ccccc2)nc1
T/C [7]: 110 % of control
T/C [8]: 100 % of control
T/C [9]: 100 % of control
T/C [10]: 95 % of control
T/C [11]: 105 % of control

OC(COc1c2ccccc2nc2ccccc12)CN1CCOCC1 (centres undefined)
T/C [12]: 99 % of control
T/C [13]: 93 % of control

[O-]/[N+](=C\c1ccccc1)CC1(O)CCCCC1
T/C [8]: 90 % of control
T/C [9]: 88 % of control
T/C [10]: 99 % of control

N#CC1(N2CCCCC2)CCCCC1
T/C [1]: 106 % of control
T/C [2]: 103 % of control
T/C [3]: 93 % of control

O=C1CC2(CCCC2)C(=O)N1c1ccccc1O
T/C (dose: 25.0 mg/kg/injection, schedule: Q01DX009 (ip), vehicle: saline): 103 % of control
T/C [5]: 118 % of control and 94 % of control
T/C [14]: 96 % of control
T/C [6]: 100 % of control
T/C [15]: 96 % of control
T/C (dose: 200.0 mg/kg/injection, schedule: Q01DX009 (ip), vehicle: Klucel (hydroxypropylcellulose) (HPC)): 100 % of control
T/C [16]: 96 % of control

CC12CCC3C4CCC(=O)C(O)=C4CCC3C1CCC2OC(=O)CCC1CCCC1 (centres undefined)
T/C (dose: 50.0 mg/kg/injection, schedule: Q04DX003 (sc), vehicle: Klucel (hydroxypropylcellulose) (HPC)): 99 % of control
T/C (dose: 100.0 mg/kg/injection, schedule: Q04DX003 (sc), vehicle: Klucel (hydroxypropylcellulose) (HPC)): 118 % of control
T/C (dose: 200.0 mg/kg/injection, schedule: Q04DX003 (sc), vehicle: Klucel (hydroxypropylcellulose) (HPC)): 101 % of control

COC(=O)[C@H]1O[C@H]1c1ccncc1
T/C (dose: 50.0 mg/kg/injection, schedule: Q01DX005 (ip), vehicle: Klucel (hydroxypropylcellulose) (HPC)): 100 % of control and 104 % of control
T/C (dose: 100.0 mg/kg/injection, schedule: Q01DX005 (ip), vehicle: Klucel (hydroxypropylcellulose) (HPC)): 103 % of control and 92 % of control
T/C (dose: 200.0 mg/kg/injection, schedule: Q01DX005 (ip), vehicle: Klucel (hydroxypropylcellulose) (HPC)): 103 % of control and 94 % of control
T/C (dose: 400.0 mg/kg/injection, schedule: Q01DX005 (ip), vehicle: Klucel (hydroxypropylcellulose) (HPC)): 101 % of control and 92 % of control

CCOC(=O)c1[nH]c(=S)n(-c2ccccc2)c1C(=O)OCC
T/C (dose: 6.25 mg/kg/injection, schedule: Q01DX009 (ip), vehicle: saline with Tween-80): 101 % of control
T/C (dose: 12.5 mg/kg/injection, schedule: Q01DX009 (ip), vehicle: saline with Tween-80): 110 % of control
T/C [7]: 111 % of control
T/C [8]: 101 % of control

Cc1ccc2c(c1)C1(SC(C)C(=O)N1c1ccc(Cl)cc1)C(=O)N2 (centres undefined)
T/C (dose: 30.0 mg/kg/injection, schedule: Q01DX005 (ip), vehicle: saline with Tween-80): 103 % of control
T/C (dose: 60.0 mg/kg/injection, schedule: Q01DX005 (ip), vehicle: saline with Tween-80): 114 % of control and 121 % of control
T/C (dose: 120.0 mg/kg/injection, schedule: Q01DX005 (ip), vehicle: saline with Tween-80): 119 % of control

O=C1OC(c2ccccc2)CC1N1CCOCC1 (centres undefined)
T/C [9]: 100 % of control
T/C (dose: 100.0 mg/kg/injection, schedule: Q04DX003 (ip), vehicle: saline sonified): 100 % of control
T/C [10]: 100 % of control
T/C [11]: 100 % of control
T/C (dose: 400.0 mg/kg/injection, schedule: Q04DX003 (ip), vehicle: saline sonified): 89 % of control

[N-]=[N+]=CC(=O)C1(c2ccccc2)OC1c1ccccc1 (centres undefined)
T/C (dose: 25.0 mg/kg/injection, schedule: Q01DX005 (ip), vehicle: saline with Tween-80): 91 % of control
T/C [12]: 86 % of control
T/C [13]: 94 % of control
T/C (dose: 200.0 mg/kg/injection, schedule: Q01DX005 (ip), vehicle: saline with Tween-80): 86 % of control

COc1cc(C=Nc2cc(Cl)cc(Cl)c2)ccc1N(CCCl)CCCl
T/C (dose: 100.0 mg/kg/injection, schedule: Q04DX003 (ip), vehicle: saline with Tween-80): 159 % of control and 172 % of control
T/C (dose: 200.0 mg/kg/injection, schedule: Q04DX003 (ip), vehicle: saline with Tween-80): 181 % of control and 222 % of control
T/C (dose: 300.0 mg/kg/injection, schedule: Q04DX003 (ip), vehicle: saline with Tween-80): 204 % of control

CS(=O)(=O)N(C=O)c1ccccc1
T/C [14]: 110 % of control
T/C [15]: 100 % of control
T/C [16]: 96 % of control
